Measurements from patent US20250250559A1, “METHOD TO ANALYZE AND OPTIMIZE GENE EDITING MODULES AND DELIVERY APPROACHES” (Hoffmann-La Roche Inc., priority 2016, published 2025).
Where “and” joins values, the source holds several entries; their conditions need not be identical. Identical values can stand only once.

Assays:
Type in all cases: cell-based, human
DPH1 gene [1] = experiment: DT resistant colony count after DPH1 gene editing (homozygous gene inactivation); details: for # of DT resistant colonies (mean of the samples) / # of DT resistant colonies: TF eff. = 38%; for # of DT resistant colonies: DPH1 assay (integr. vs. k.o.), individual samples; for # of DT resistant colonies (40,000 seeded cells): DPH1 assay editing entities, MCF-7, individual replicates, TF eff. = 33%
DPH1 gene [2] = experiment: PM resistant colony count after DPH1 gene editing (PAC cassette integration); details: for # of PM resistant colonies (40,000 seeded cells): MCF7, individual samples A-D; for # of PM resistant colonies (mean of the samples) / # of PM resistant colonies: TF eff. = 38%; for # of PM resistant colonies: DPH1 assay (integr. vs. k.o.), individual samples; for # of PM resistant colonies (80,000 seeded cells): DPH1 assay editing entities, MCF-7, individual replicates, TF eff. = 33%
Experimental: MCF7 cells (Brooks, et al. 1973) were originally obtained from ATCC (subsequently propagated in an in-house cell bank) and maintained in RPMI […] medium supplemented with 10% FCS, 2 mM L-Glutamine and penicillin/streptomycin at 37° C. and 85% humidity. For transfection of plasmids harboring gene-editing modules, 3,000,000 cells were seeded in a 10 cm diameter culture dish and cultivated at 37° C. and humidified 5% CO2. 24 h after seeding, cells were transfected with 20 μg total DNA using JetPEI (Polyplus) according to the manufacturer's protocol but with an N/P ratio of 6:1. Transfection efficiency was determined after 24 h by flow cytometry (FACS Calibur, BD biosciences) of cells that were transfected with a modified eGFP expression plasmid (Zhang, et al. 1996).
Plasmids encoding CRISPR/Cas9 gene-editing entities (i.e. knock-out and integration systems) against Dph1 (gRNA target sequence: […] (SEQ ID NO: 01) derived from RefSeq: NM_001383) and Dph2 (gRNA target sequence: […] (SEQ ID NO: 02) derived from RefSeq: NM_001039589, NM_001384), and scrambled control (gRNA sequence: […] (SEQ ID NO: 03)) were obtained from OriGene. This system comprises one plasmid expressing a ˜100 nt gRNA under control of a U6 promoter as well as Cas9 nuclease under control of a CMV promoter and a Donor plasmid with a promoter-less GFP/PM expression cassette flanked by homologous arms to the target gene (Dph1 or Dph2). Additional Dph1 gRNA sequence variants of different sizes (OriGene) […]
MCF7 cells which have all chromosomal copies of DPH1 or DPH2 inactivated are resistant to diphtheria toxin (Stahl, et al. 2015). Thus, occurrence and frequency of toxin resistant cells/colonies upon CRISPR/Cas inflicted gene inactivation provides a measure for efficiency of inactivation of all gene copies. Therefore, MCF/cells were transfected as described in Example 1 with (i) a GFP expression plasmid as transfection control, (ii) the CRISPR/Cas9 Dph1 or Dph2 knock-out/integration system and (iii) knock-out/integration entities containing a scrambled gRNA to determine Cas9 independent integration frequencies. After determination of transfection efficiency, cells were seeded in 6-well plates. […] RPMI medium was exchanged by RPMI medium containing DT or PM or both toxins 3 days after cell seeding. Exchange of medium was repeated every 2-3 days until all dead cells were removed from the plates and actively growing colonies could be detected via microscopic inspection. Thereafter (between day 12 and day 14 after start of toxin exposure), cells were washed 3 times with PBS and subsequently stained with ice cold methylene blue (0.2% in 50% EtOH). Methylene blue solution was subsequently removed and the plates were carefully washed under running water. Finally, cell colonies were counted under the microscope with a 5 mm grid foil.
CRISPR/Cas module for targeted integration contains a puromycin (PM) resistance gene expression cassette without promoter to avoid transient expression. Thus, detection of integration of recombinant sequences into the genome was detected by determining sensitivity of cells towards PM. A concentration of […] PM (which quantitatively eliminates wildtype MCF7 cells) was applied to select MCF7 cells with stably integrated expression cassettes. PM-resistant colonies selected with the same procedure as described above for the DT selection and visualized and quantified (between 12 and 14 days after start of selection) in the same manner as described above for toxin resistant colonies. Number of PM resistant colonies obtained with non-target guide sequences (scrambled gRNA, FIG. 1) reflect the nonspecific integration background. Increase in colonies (above nonspecific background) obtained with target-gene gRNAs which are PM-resistant but toxin sensitive reflect integration into just one target allele, leaving the other dph1 or dph2 allele unaffected. […]

DPH1 gene [3] = experiment: DT + PM double resistant colony count after DPH1 gene editing (integration with inactivation); details: for # of DT + PM resistant colonies (40,000 seeded cells) / # of DT + PM resistant colonies (40,000 seeded cells) (unheaded second sub-column: mean): DPH1 (gRNA length), TF eff. = 31%; for # of DT + PM resistant colonies (40,000 seeded cells) / # of PM + DT resistant colonies (40,000 seeded cells): MCF7, individual samples A-D; for # of PM + DT resistant colonies (40,000 seeded cells) / # of PM + DT resistant colonies (40,000 seeded cells) (unheaded second sub-column: mean): DPH1 assay (integr. vs. (integr. + k.o.)), TF eff. = 67*%; for # of DT + PM resistant colonies (80,000 seeded cells): DPH1 assay editing entities, MCF-7, individual replicates, TF eff. = 33%
Experimental: MCF7 cells (Brooks, et al. 1973) were originally obtained from ATCC (subsequently propagated in an in-house cell bank) and maintained in RPMI 1641 medium supplemented with 10% FCS, 2 mM L-Glutamine and penicillin/streptomycin at 37° C. and 85% humidity. For transfection of plasmids harboring gene-editing modules, 3,000,000 cells were seeded in a 10 cm diameter culture dish and cultivated at 37° C. and humidified 5% CO2. 24 h after seeding, cells were transfected with 20 μg total DNA using JetPEI (Polyplus) according to the manufacturer's protocol but with an N/P ratio of 6:1. Transfection efficiency was determined after 24 h by flow cytometry (FACS Calibur, BD biosciences) of cells that were transfected with a modified eGFP expression plasmid (Zhang, et al. 1996).
MCF7 cells which have all chromosomal copies of DPH1 or DPH2 inactivated are resistant to diphtheria toxin (Stahl, et al. 2015). Thus, occurrence and frequency of toxin resistant cells/colonies upon CRISPR/Cas inflicted gene inactivation provides a measure for efficiency of inactivation of all gene copies. Therefore, MCF/cells were transfected as described in Example 1 with (i) a GFP expression plasmid as transfection control, (ii) the CRISPR/Cas9 Dph1 or Dph2 knock-out/integration system and (iii) knock-out/integration entities containing a scrambled gRNA to determine Cas9 independent integration frequencies. After determination of transfection efficiency, cells were seeded in 6-well plates. For quantification of homozygous knock-out events by DT 20000 cells were seeded and for quantification of integration events by PM or both events 40000 cells were seeded. RPMI medium was exchanged by RPMI medium containing DT or PM or both toxins 3 days after cell seeding. Exchange of medium was repeated every 2-3 days until all dead cells were removed from the plates and actively growing colonies could be detected via microscopic inspection. Thereafter (between day 12 and day 14 after start of toxin exposure), cells were washed 3 times with PBS and subsequently stained with ice cold methylene blue (0.2% in 50% EtOH). Methylene blue solution was subsequently removed and the plates were carefully washed under running water. Finally, cell colonies were counted under the microscope with a 5 mm grid foil.
CRISPR/Cas module for targeted integration contains a puromycin (PM) resistance gene expression cassette without promoter to avoid transient expression. Thus, detection of integration of recombinant sequences into the genome was detected by determining sensitivity of cells towards PM. A concentration of 500 ng/μL PM (which quantitatively eliminates wildtype MCF7 cells) was applied to select MCF7 cells with stably integrated expression cassettes. PM-resistant colonies selected with the same procedure as described above for the DT selection and visualized and quantified (between 12 and 14 days after start of selection) in the same manner as described above for toxin resistant colonies. Number of PM resistant colonies obtained with non-target guide sequences (scrambled gRNA, FIG. 1) reflect the nonspecific integration background. Increase in colonies (above nonspecific background) obtained with target-gene gRNAs which are PM-resistant but toxin sensitive reflect integration into just one target allele, leaving the other dph1 or dph2 allele unaffected. PM resistant colonies that are also DT resistant have the expression cassette integrated into at least target allele and the other allele either inactivated or inactivated accompanied by yet another integration event.

[4] = DPH1 assay (integr. vs. k.o.), 10,000 seeded cells
[5] = DPH1 assay (integr. vs. k.o.), 40,000 seeded cells
[6] = MCF7, 10,000 seeded cells, listed as CRISPR Cas9 Dph1 gRNA
[7] = MCF7, 40,000 seeded cells, listed as CRISPR Cas9 Dph1 gRNA
[8] = DPH1 (gRNA length), TF eff. = 31%
[9] = DPH1 assay (integr. vs. (integr. + k.o.)), TF eff. = 67*%
[10] = DPH1 assay (integr. vs. k.o.), 20,000 seeded cells

| Substance | # of DT resistant colonies (mean of the samples) (DPH1 gene [1]; [4]) | # of DT resistant colonies (mean of the samples) (DPH1 gene [1]; [5]) | # of DT resistant colonies (DPH1 gene [1]; MCF7, 40,000 seeded cells) | # of DT resistant colonies (40,000 seeded cells) (DPH1 gene [1]) | # of PM resistant colonies (40,000 seeded cells) (unheaded second sub-column: mean) (DPH1 gene [2]; [8]) | # of PM resistant colonies (40,000 seeded cells) (unheaded second sub-column: mean) (DPH1 gene [2]; [9]) | # of PM resistant colonies (mean of the samples) (DPH1 gene [2]; [4]) | # of PM resistant colonies (mean of the samples) (DPH1 gene [2]; [10]) | # of PM resistant colonies (mean of the samples) (DPH1 gene [2]; [5]) | # of PM resistant colonies (DPH1 gene [2]; MCF7, 10,000 seeded cells) | # of PM resistant colonies (DPH1 gene [2]; MCF7, 20,000 seeded cells) | # of PM resistant colonies (DPH1 gene [2]; MCF7, 40,000 seeded cells) | # of PM resistant colonies (80,000 seeded cells) (DPH1 gene [2]) | # of DT + PM resistant colonies (40,000 seeded cells) (DPH1 gene [3]) | # of DT + PM resistant colonies (40,000 seeded cells) (unheaded second sub-column: mean) (DPH1 gene [3]) | # of PM + DT resistant colonies (40,000 seeded cells) (DPH1 gene [3]) | # of PM + DT resistant colonies (40,000 seeded cells) (unheaded second sub-column: mean) (DPH1 gene [3]) | # of DT + PM resistant colonies (80,000 seeded cells) (DPH1 gene [3]) | other results |
| --- | --- | --- | --- | --- | --- | --- | --- | --- | --- | --- | --- | --- | --- | --- | --- | --- | --- | --- | --- |
| 20 mer SpCas9 DPH1 gRNA: Plasmids encoding SpCas9 and Dph1 gRNA (target CAGGGCGGCCGAGACGGCCC, SEQ ID NO: 01) plus PAC donor plasmid, OriGene | 218 | 947 | 995 and 942 and 899 and 950 | 476 and 492 and 468 and 472 | 15 | 24 | 9 | 13 | 24 | 7 and 10 (2×) and 29 | 18 and 13 (2×) and 6 | 29 and 12 and 30 and 24 | 14 and 11 and 9 and 10 | 6 and 5 and 7 (2×) | 6 | 15 and 13 and 11 and 12 | 13 | 5 and 4 and 3 | # of DT resistant colonies (DPH1 gene [1]; [6]): 201 and 224 and 219; # of DT resistant colonies (DPH1 gene [1]; [7]): 995 and 942 and 899 and 950; # of PM resistant colonies (40,000 seeded cells) (DPH1 gene [2]; [8]): 16 (2×) and 20 and 8; # of PM resistant colonies (40,000 seeded cells) (DPH1 gene [2]; DPH1 (gRNA length), TF eff. = 31%, listed as 20 mer Dph1 CRISPR Cas9 gRNA): 16 (2×) and 20 and 8; # of PM resistant colonies (40,000 seeded cells) (DPH1 gene [2]; [9]): 25 (2×) and 22 and 24; # of PM resistant colonies (40,000 seeded cells) (DPH1 gene [2]; DPH1 assay (integr. vs. (integr. + k.o.)), TF eff. = 67*%, listed as Dph1 CRISPR Cas9 gRNA): 25 (2×) and 22 and 24; # of PM resistant colonies (DPH1 gene [2]; [6]): 7 and 10 (2×); # of PM resistant colonies (DPH1 gene [2]; MCF7, 20,000 seeded cells, listed as CRISPR Cas9 Dph1 gRNA): 18 and 13 (2×) and 6; # of PM resistant colonies (DPH1 gene [2]; [7]): 29 and 12 and 30 and 24; integration efficacy in dependence on gRNA length (DPH1 gene [2]; PMr colonies): Targeted integration clearly above background was observed; # of DT + PM resistant colonies (40,000 seeded cells) (DPH1 gene [3]; listed as 20 mer Dph1 CRISPR Cas9 gRNA): 6 and 5 and 7 (2×); # of PM + DT resistant colonies (40,000 seeded cells) (DPH1 gene [3]; listed as Dph1 CRISPR Cas9 gRNA): 15 and 13 and 11 and 12 |
| 20 mer SpCas9 scRNA: Scrambled control gRNA GCACTACCAGAGCTAACTCA (SEQ ID NO: 03) with SpCas9 and donor plasmid [reference compound] | 0 | 0 | 0 | 0 | 8 | 11 | 3 | 9 | 12 | 3 (2×) and 2 and 4 | 11 and 7 and 10 and 9 | 17 and 13 and 9 and 10 | 4 and 3 and 5 | 0 | 0 | 0 | 0 | 0 | # of DT resistant colonies (DPH1 gene [1]; MCF7, 10,000 seeded cells): 0; # of PM resistant colonies (40,000 seeded cells) (DPH1 gene [2]; DPH1 (gRNA length), TF eff. = 31%, listed as 20 mer scRNA): 7 and 6 and 9 and 10; # of PM resistant colonies (40,000 seeded cells) (DPH1 gene [2]; DPH1 assay (integr. vs. (integr. + k.o.)), TF eff. = 67*%, listed as 20 mer scRNA): 10 (2×) and 9 and 16; # of PM resistant colonies (40,000 seeded cells) (DPH1 gene [2]; DPH1 assay (integr. vs. (integr. + k.o.)), TF eff. = 67*%, listed as SCRNA): 16; # of PM resistant colonies (40,000 seeded cells) (DPH1 gene [2]; DPH1 assay (integr. vs. (integr. + k.o.)), TF eff. = 67*%, listed as scRNA): 10 (2×) and 9; # of PM resistant colonies (DPH1 gene [2]; MCF7, 10,000 seeded cells, listed as CRISPR Cas9 SCRNA): 3 (2×) and 2 and 4; # of PM resistant colonies (DPH1 gene [2]; MCF7, 20,000 seeded cells, listed as CRISPR Cas9 SCRNA): 11 and 10 and 9; # of PM resistant colonies (DPH1 gene [2]; MCF7, 20,000 seeded cells, listed as CRISPR Cas9 scRNA): 7; # of PM resistant colonies (DPH1 gene [2]; MCF7, 40,000 seeded cells, listed as CRISPR Cas9 SCRNA): 17 and 9 and 10; # of PM resistant colonies (DPH1 gene [2]; MCF7, 40,000 seeded cells, listed as CRISPR Cas9 scRNA): 13; fold less PMr colonies than with DPH1-specific gRNA (DPH1 gene [2]; otherwise identical conditions): 2 fold |
